Results reported in patent US4732970A, “Antitumor amino acid and peptide derivatives of 1,4-bis(aminoalkyl and hydroxy-aminoalkyl)amino)-5,8-dihydroxyanthraquinones” (priority 1986, dated 1988).

System: lymphocytic leukemia P388
Experiment: Lymphocytic Leukemia P388 Test
Type: in vivo, BDF1 mice
Conditions: for Median Survival: BDF1 mice; for T/C × 100 (%): ratio of survival time treated/control
Method in brief: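 BDF1 mice (5–6 per group) were inoculated i.p. with 10^6 P388 cells, then dosed i.p. on days 1, 5 and 9 at various doses. Survival was followed for 60 days, and median survival time and the treated/control (T/C) survival ratio were calculated.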

[1] = dose 0.75 mg/kg intraperitoneally on days 1, 5 and 9
[2] = dose 1.5 mg/kg intraperitoneally on days 1, 5 and 9
[3] = dose 3 mg/kg intraperitoneally on days 1, 5 and 9

SMILES | Median Survival [1] [days] | T/C × 100 (%) [1] [%] | Median Survival [2] [days] | T/C × 100 (%) [2] [%] | Median Survival [3] [days] | T/C × 100 (%) [3] [%]
C[C@H](N)C(=O)N[C@@H](C)C(=O)N[C@@H](C)C(=O)NCCNc1ccc(NCCNC(=O)[C@H](C)NC(=O)[C@H](C)NC(=O)[C@H](C)N)c2c1C(=O)c1c(O)ccc(O)c1C2=O.O=C(O)C(F)(F)F.O=C(O)C(F)(F)F [Example 73, N,N'-[(9,10-Dihydro-5,8-dihydroxy-9,10-dioxo-1,4-anthracenediyl)bis(imino-2,1-ethanediyl)]bis[L-alanyl-L-alanyl-L-alanine]bis(trifluoroacetate)] | 21.0 | 200 | 24.5 | 233 | 40.0 | 381
C[C@H](NC(=O)[C@H](CO)NC(=O)OC(C)(C)C)C(=O)NCCNc1ccc(NCCNC(=O)[C@H](C)NC(=O)[C@H](CO)NC(=O)OC(C)(C)C)c2c1C(=O)c1c(O)ccc(O)c1C2=O [Example 75] | 18.5 | 154 | 19.0 | 158 | 21.0 | 175
C[C@H](NC(=O)[C@@H](N)CO)C(=O)NCCNc1ccc(NCCNC(=O)[C@H](C)NC(=O)[C@@H](N)CO)c2c1C(=O)c1c(O)ccc(O)c1C2=O.O=C(O)C(F)(F)F.O=C(O)C(F)(F)F [Example 76, N,N'-[(9,10-Dihydro-5,8-dihydroxy-9,10-dioxo-1,4-anthracenediyl)bis(imino-2,1-ethanediyl)]bis[L-seryl-L-alaninamide]bis(trifluoroacetate)] | 22.0 | 183 | 22.5 | 188 | 22.5 | 188
C[C@H](NC(=O)[C@H](CO)NC(=O)[C@H](CC(=O)OC(C)(C)C)NC(=O)OCC1c2ccccc2-c2ccccc21)C(=O)NCCNc1ccc(NCCNC(=O)[C@H](C)NC(=O)[C@H](CO)NC(=O)[C@H](CC(=O)OC(C)(C)C)NC(=O)OCC2c3ccccc3-c3ccccc32)c2c1C(=O)c1c(O)ccc(O)c1C2=O [Example 77, N,N'-[(9,10-Dihydro-5,8-dihydroxy-9,10-dioxo-1,4-anthracenediyl)bis(imino-2,1-ethanediyl)]bis[N-[(9H-fluoren-9-ylmethoxy)carbonyl]-L-α-aspartyl-L-seryl-L-alaninamide]bis(1,1-dimethylethyl)ester] | 20.0 | 167 | 20.0 | 167 | 22.5 | 188
C[C@H](NC(=O)[C@H](CO)NC(=O)[C@@H](N)CC(=O)OC(C)(C)C)C(=O)NCCNc1ccc(NCCNC(=O)[C@H](C)NC(=O)[C@H](CO)NC(=O)[C@@H](N)CC(=O)OC(C)(C)C)c2c1C(=O)c1c(O)ccc(O)c1C2=O [Example 78, N,N'-[(9,10-Dihydro-5,8-dihydroxy-9,10-dioxo-1,4-anthracenediyl)bis(imino-2,1-ethanediyl)]bis[L-α-aspartyl-L-seryl-L-alaninamide]bis(1,1-dimethylethyl)ester] | 18.0 | 150 | 23.0 | 192 | 22.5 | 188
C[C@H](NC(=O)[C@H](C)NC(=O)[C@H](CC(=O)OC(C)(C)C)NC(=O)OCC1c2ccccc2-c2ccccc21)C(=O)NCCNc1ccc(NCCNC(=O)[C@H](C)NC(=O)[C@H](C)NC(=O)[C@H](CC(=O)OC(C)(C)C)NC(=O)OCC2c3ccccc3-c3ccccc32)c2c1C(=O)c1c(O)ccc(O)c1C2=O [Example 79, N,N'-[(9,10-Dihydro-5,8-dihydroxy-9,10-dioxo-1,4-anthracenediyl)bis(imino-2,1-ethanediyl)]bis[N-[(9H-fluoren-9-ylmethoxy)carbonyl]-L-α-aspartyl-L-alanyl-L-alaninamide]bis(1,1-dimethylethyl)ester] | 18.5 | 168 | 18.0 | 164 | 19.0 | 173
CC(NC(=O)C(N)CC(=O)OC(C)(C)C)C(=O)NC(C)C(=O)NCCNc1ccc(NCCNC(=O)C(C)NC(=O)C(C)NC(=O)C(N)CC(=O)OC(C)(C)C)c2c1C(=O)c1c(O)ccc(O)c1C2=O [Example 80, N,N'-[(9,10-Dihydro-5,8-dihydroxy-9,10-dioxo-1,4-anthracenediyl)bis(imino-2,1-ethanediyl)]bis[L-α-aspartyl-L-alanyl-L-alaninamide]bis(1,1-dimethylethyl)ester] | 19.0 | 173 | 19.5 | 177 | 26.0 | 236
CC(C)C[C@H](NC(=O)[C@H](C)NC(=O)[C@H](CC(=O)OC(C)(C)C)NC(=O)OCC1c2ccccc2-c2ccccc21)C(=O)NCCNc1ccc(NCCNC(=O)[C@H](CC(C)C)NC(=O)[C@H](C)NC(=O)[C@H](CC(=O)OC(C)(C)C)NC(=O)OCC2c3ccccc3-c3ccccc32)c2c1C(=O)c1c(O)ccc(O)c1C2=O [Example 81, N,N'-[(9,10-Dihydro-5,8-dihydroxy-9,10-dioxo-1,4-anthracenediyl)bis(imino-2,1-ethanediyl)]bis[N-[(9H-fluoren-9-ylmethoxy)carbonyl]-L-α-aspartyl-L-alanyl-L-leucinamide]bis(1,1-dimethylethyl)ester] | 16.0 | 145 | 18.5 | 168 | 19.0 | 173
CC(C)C[C@H](NC(=O)[C@H](C)NC(=O)[C@@H](N)CC(=O)OC(C)(C)C)C(=O)NCCNc1ccc(NCCNC(=O)[C@H](CC(C)C)NC(=O)[C@H](C)NC(=O)[C@@H](N)CC(=O)OC(C)(C)C)c2c1C(=O)c1c(O)ccc(O)c1C2=O [Example 82, N,N'-[(9,10-Dihydro-5,8-dihydroxy-9,10-dioxo-1,4-anthracenediyl)bis(imino-2,1-ethanediyl)]bis[L-α-aspartyl-L-alanyl-L-leucinamide]bis(1,1-dimethylethyl)ester] | 21.0 | 191 | 19.0 | 173 | 19.0 | 173
C[C@H](NC(=O)[C@H](C)NC(=O)[C@@H](N)CC(=O)O)C(=O)NCCNc1ccc(NCCNC(=O)[C@H](C)NC(=O)[C@H](C)NC(=O)[C@@H](N)CC(=O)O)c2c1C(=O)c1c(O)ccc(O)c1C2=O.O=C(O)C(F)(F)F.O=C(O)C(F)(F)F [Example 83] | 22.0 | 220 | 22.5 | 225 | 38.5 | 385
CC(C)C[C@H](NC(=O)[C@H](C)NC(=O)[C@@H](N)CC(=O)O)C(=O)NCCNc1ccc(NCCNC(=O)[C@H](CC(C)C)NC(=O)[C@H](C)NC(=O)[C@@H](N)CC(=O)O)c2c1C(=O)c1c(O)ccc(O)c1C2=O.O=C(O)C(F)(F)F.O=C(O)C(F)(F)F [Example 84, N,N'-[(9,10-Dihydro-5,8-dihydroxy-9,10-dioxo-1,4-anthracenediyl)bis(imino-2,1-ethanediyl)]bis[L-α-aspartyl-L-alanyl-L-leucinamide]bis(trifluoroacetate)] | 24.0 | 240 | 21.5 | 215 | 28.0 | 280
Br.Br.N=C(N)NCCC[C@H](N)C(=O)NCCNc1ccc(NCCNC(=O)[C@@H](N)CCCNC(=N)N)c2c1C(=O)c1c(O)ccc(O)c1C2=O [Example 86, N,N'-[(9,10-Dihydro-5,8-dihydroxy-9,10-dioxo-1,4-anthracenediyl)bis(imino-2,1-ethanediyl)]-L-arginine, dihydrobromide] | 22.0 | 200 | 27.0 | 245 | 34.5 | 314
Br.Br.C[C@H](NCCNc1ccc(NCCN[C@@H](C)C(=O)N[C@@H](CCCNC(=N)N)C(=O)OC(C)(C)C)c2c1C(=O)c1c(O)ccc(O)c1C2=O)C(=O)N[C@@H](CCCNC(=N)N)C(=O)OC(C)(C)C [Example 87, N,N'-[(9,10-Dihydro-5,8-dihydroxy-9,10-dioxo-1,4-anthracenediyl)bis(imino-2,-ethanediyl)]bis[L-alanyl-L-arginine]bis(1,1-dimethylethyl)ester, dihydrobromide] | 17.0 | 170 | 19.0 | 190 | 20.5 | 205
